The source of these data is PubChem BioAssay (NCI).

Holding throughout (test): inhibition of tumour cell growth, NCI panel, 48 h
The subject of test [1] is HCT-116 colon.
Test [2] relates to OVCAR-5 ovarian.
In test [3] the test system is SW-620 colon.
Test [4] deals with MOLT-4 leukemia.
Test [5] has as its system CCRF-CEM leukemia.
In test [6] the test system is DU-145 prostate.
For test [7], the system named is SK-MEL-28 melanoma.
For test [8], the system named is SR leukemia.
The test system of test [9] is SF-539 CNS.
Test [10] has as its system A498 renal.

Structures are written as SMILES.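 Protocol summary: plate cells (96-well), add compound at 5 concentrations, incubate 48 h, interpolate endpoints linearly. The concentration for full growth arrest is given as TGI.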

On to `CC(=O)Oc1cc(-c2oc3cc(OC(C)=O)c(C4OC(CO)C(O)C(O)C4O)c(OC(C)=O)c3c(=O)c2O)c(OC(C)=O)cc1O` (centres undefined), for which the TGI in test [1], in test [2], in test [3], in test [4], in [5] and in test [6] was greater than 100 µM throughout.
`COC(=O)C1=CCC2c3[nH]c4ccccc4c3CCN2C1` (centres undefined): the TGI in [1], in test [3], in [7], in test [4], in [5] and in [8] was greater than 354 µM each time. The molecule also returned a TGI in test [9] greater than 354 µM.
On to `CC(C)c1c(O[Si](C(C)C)(C(C)C)C(C)C)cc2c(c1O)CC[C@H]1C(C)(C)CCC[C@]21C`, for which the TGI in [10], in [1], in test [2], in test [3], in test [7] and in [4] was greater than 100 µM throughout. In addition, the TGI in [5], in [9] and in [6] was greater than 100 µM in each case.
For `CN(/N=C/C=N/N(C)C1=NCCN1)C1=NCCN1`, the TGI in test [1], in [2], in [3], in [7], in test [4] and in test [5] was greater than 100 µM throughout. Further, the TGI in [8], in test [9] and in test [6] was greater than 100 µM each time.
For the molecule `CC(C)C(CCOS(=O)(=O)O)CCC(C)[C@H]1[C@@H](O)C(O)C2[C@]3(O)C[C@@H](O)C4(O)C[C@@H](O)CC[C@]4(C)C3CC[C@@]21C` (some centres undefined), the TGI in test [1], in test [3], in [7], in test [5], in [8] and in test [9] was greater than 100 µM each time.
As for `C[C@@H](c1ccccc1)N1CO[C@@]2(C#Cc3ccc4c(c3)OCO4)CCC[C@@H]12`, the TGI in test [1] is 29.1 µM; in test [2], 32 µM; in test [7], 39 µM; in [4] it was 48.2 µM; in [5], greater than 100 µM; in test [8], 32.5 µM. In addition, in test [6], the TGI turned out to be 29.7 µM.
As to `CC#CC#C/C=C1\C=CC2(OC=CC2O)O1` (centres undefined), the TGI in test [1] is 22.9 µM; in [2], 11.8 µM; in test [3], greater than 23.3 µM; in [7], greater than 23.3 µM; in test [4], greater than 23.3 µM; in test [5], greater than 21.1 µM. The TGI in test [8] and in test [9] was greater than 23.3 µM in each case.
Regarding `CC1CC(=O)Nc2ccccc2N1C(=O)C1CC1` (centres undefined), the TGI in test [10], in [1], in [2], in [3], in test [7] and in [4] was greater than 100 µM each time. The TGI in test [5], in test [9] and in test [6] was greater than 100 µM throughout.
`CCOc1cc2c(cc1O)C(=O)C[C@@H]1[C@@H]2CC[C@]2(C)[C@@H](O)CC[C@@H]12`: the TGI in [10] was greater than 29.1 µM; in test [1], 38 µM; in test [2] it was greater than 100 µM; in test [3], greater than 100 µM; in test [7], greater than 73.5 µM; in test [4], greater than 31.7 µM. The results for the TGI in test [5], in test [9] and in [6] were greater than 100 µM, 0.487 µM and greater than 51.9 µM, respectively.
Regarding `CSC1=Nc2ccccc2N=C(c2ccccc2)C1`, the TGI is greater than 100 µM in [10]; 45.6 µM in test [1]; greater than 100 µM in test [2]; 32.6 µM in test [3]; greater than 100 µM in test [7]; greater than 100 µM in [4]. Moreover, the TGI was 58.9 µM in [5], greater than 100 µM in [8] and greater than 100 µM in [9].
Take `OC(Cc1cc(CC(O)(C(F)(F)F)C(F)(F)F)nc(CC(O)(C(F)(F)F)C(F)(F)F)c1)(C(F)(F)F)C(F)(F)F`: the TGI was 3.22 µM in [10]; 2.76 µM in test [1]; greater than 10 µM in test [2]; greater than 10 µM in test [3]; 5.68 µM in test [7]; greater than 10 µM in test [4]. Further, the values for the TGI in test [5], in [9] and in [6] were greater than 10 µM, 3.44 µM and 7.09 µM, respectively.
For the molecule `C/C(CCN(C)C)=N\OC(=O)c1ccccc1`, the TGI in test [10], in test [1], in test [2], in test [3], in [7] and in test [4] was greater than 100 µM each time. Also, the TGI in test [5], in [8] and in [9] was greater than 100 µM each time.
On to `C=C(C)[C@H]1CC(=O)[C@@]2(C)C[C@H]3O[C@]3(C)CC/C=C(\C)CC[C@H]12`, for which the TGI is 73.9 µM in [10]; 85.4 µM in test [1]; greater than 100 µM in [2]; greater than 100 µM in test [3]; greater than 100 µM in [7]; 60.9 µM in [4]. In addition, the TGI in test [5], in test [9] and in test [6] was greater than 100 µM each time.
For `Cn1c(=O)c2c(=O)cc(N)[nH]c2n(C)c1=O`, the TGI in test [10], in test [1], in [2], in test [3], in [7] and in [4] was greater than 100 µM each time. In addition, the TGI in [5], in test [9] and in test [6] was greater than 100 µM each time.
Regarding `O=C(Nc1ccc(F)cc1)c1cc2c(cc1Cl)Sc1nccn1S2(=O)=O`, the TGI in test [10] was 74 µM; in [1], greater than 100 µM; in [2], greater than 100 µM; in test [3], greater than 100 µM; in test [7], greater than 100 µM; in [4], greater than 100 µM. Besides, the TGI in test [5], in test [9] and in test [6] was greater than 100 µM in each case.
